Where “and” joins values, the source holds several entries; their conditions need not be identical. Identical values can stand only once. Inconclusive results and toxic doses are left out.
System: L1210 leukemia ip in BDF1 mice, survival T/C
Experiment: NCI In Vivo Anticancer Drug Screen. Data for tumor model L1210 Leukemia (intraperitoneal) in B6D2F1 (BDF1) mice
Details: endpoint: mean survival time, higher = longer survival
Method in brief: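 Transplantable tumor model; survival measured in treated vs vehicle control mice. Value = treated/control.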

[1] = dose: 100.0 mg/kg/injection, schedule: Q01DX001 (ip), vehicle: carboxymethylcellulose (CMC)
[2] = dose: 200.0 mg/kg/injection, schedule: Q01DX001 (ip), vehicle: carboxymethylcellulose (CMC)
[3] = dose: 400.0 mg/kg/injection, schedule: Q01DX001 (ip), vehicle: carboxymethylcellulose (CMC)
[4] = dose: 100.0 mg/kg/injection, schedule: Q04DX003 (ip), vehicle: saline with Tween-80
[5] = dose: 200.0 mg/kg/injection, schedule: Q04DX003 (ip), vehicle: saline with Tween-80
[6] = dose: 400.0 mg/kg/injection, schedule: Q04DX003 (ip), vehicle: saline with Tween-80
[7] = dose: 100.0 mg/kg/injection, schedule: Q01DX001 (ip), vehicle: saline with Tween-80
[8] = dose: 100.0 mg/kg/injection, schedule: Q01DX009 (ip), vehicle: saline with Tween-80
[9] = dose: 200.0 mg/kg/injection, schedule: Q01DX001 (ip), vehicle: saline with Tween-80
[10] = dose: 200.0 mg/kg/injection, schedule: Q01DX009 (ip), vehicle: saline with Tween-80
[11] = dose: 400.0 mg/kg/injection, schedule: Q01DX001 (ip), vehicle: saline with Tween-80
[12] = dose: 400.0 mg/kg/injection, schedule: Q01DX009 (ip), vehicle: saline with Tween-80

With `O=NN(CCF)C(=O)NC1CCC(NC(=O)N(CCF)N=O)CC1` (configuration not stated) the T/C (dose: 16.0 mg/kg/injection, schedule: Q01DX001 (ip), vehicle: carboxymethylcellulose (CMC)) was 151 % of control, the T/C (dose: 30.0 mg/kg/injection, schedule: Q01DX001 (ip), vehicle: other) was 190 % of control and the T/C (dose: 31.0 mg/kg/injection, schedule: Q01DX001 (ip), vehicle: carboxymethylcellulose (CMC)) was 176 % of control. The T/C (dose: 50.0 mg/kg/injection, schedule: Q01DX001 (ip), vehicle: other) was 220 % of control, the T/C (dose: 60.0 mg/kg/injection, schedule: Q01DX001 (ip), vehicle: other) was 294 % of control and the T/C (dose: 62.0 mg/kg/injection, schedule: Q01DX001 (ip), vehicle: carboxymethylcellulose (CMC)) was 336 % of control. For the same molecule, the T/C (dose: 80.0 mg/kg/injection, schedule: Q01DX001 (ip), vehicle: other) was 300 % of control, the T/C (dose: 120.0 mg/kg/injection, schedule: Q01DX001 (ip), vehicle: other) was 315 % of control and 340 % of control and the T/C (dose: 125.0 mg/kg/injection, schedule: Q01DX001 (ip), vehicle: carboxymethylcellulose (CMC)) was 357 % of control. The T/C (dose: 180.0 mg/kg/injection, schedule: Q01DX001 (ip), vehicle: other) was 340 % of control, the T/C (dose: 240.0 mg/kg/injection, schedule: Q01DX001 (ip), vehicle: other) was 298 % of control and the T/C (dose: 250.0 mg/kg/injection, schedule: Q01DX001 (ip), vehicle: carboxymethylcellulose (CMC)) was 357 % of control. The T/C (dose: 375.0 mg/kg/injection, schedule: Q01DX001 (ip), vehicle: carboxymethylcellulose (CMC)) was 276 % of control, the T/C (dose: 500.0 mg/kg/injection, schedule: Q01DX001 (ip), vehicle: carboxymethylcellulose (CMC)) was 271 % of control and the T/C (dose: 750.0 mg/kg/injection, schedule: Q01DX001 (ip), vehicle: carboxymethylcellulose (CMC)) was 175 % of control. For the same molecule, the T/C (dose: 1000.0 mg/kg/injection, schedule: Q01DX001 (ip), vehicle: carboxymethylcellulose (CMC)) was 175 % of control.
`CCC[N+](CC)(CC)CCOC(=O)C1C2CC3OC(=O)C1C3C2` (configuration not stated) was tested, and the T/C (dose: 100.0 mg/kg/injection, schedule: Q04DX003 (ip), vehicle: saline) was 101 % of control.
With `CCCCC(=O)N/N=C\c1c(O)cc(OC)cc1OC` the T/C [1] was 87 % of control, the T/C [2] was 87 % of control and the T/C [3] was 93 % of control.
With `CC(=O)/C(C)=C\c1ccc(O)cc1` the T/C [4] was 91 % of control, the T/C [5] was 98 % of control and the T/C [6] was 102 % of control.
In the case of `COc1ccc(S(=O)(=O)F)cc1C(=O)O`, the T/C [7] is reported as 100 % of control, the T/C [8] is reported as 100 % of control and the T/C (dose: 100.0 mg/kg/injection, schedule: Q04DX002 (ip), vehicle: saline with Tween-80) is reported as 90 % of control. The T/C [4] was 94 % of control, the T/C [9] was 92 % of control and the T/C [10] was 100 % of control. For the same molecule, the T/C (dose: 200.0 mg/kg/injection, schedule: Q04DX002 (ip), vehicle: saline with Tween-80) was 113 % of control, the T/C [5] was 97 % of control and the T/C [11] was 94 % of control. The T/C (dose: 400.0 mg/kg/injection, schedule: Q04DX002 (ip), vehicle: saline with Tween-80) was 86 % of control and the T/C [6] was 88 % of control.
`Nc1nc(N)c2[nH]cnc2n1` was tested, and the T/C (dose: 12.5 mg/kg/injection, schedule: Q01DX Z (ip), vehicle: carboxymethylcellulose (CMC)) was 91 % of control, the T/C (dose: 17.49 mg/kg/injection, schedule: Q01DX Z (ip), vehicle: carboxymethylcellulose (CMC)) was 86 % of control and the T/C (dose: 25.0 mg/kg/injection, schedule: Q01DX009 (ip), vehicle: Klucel (hydroxypropylcellulose) (HPC)) was 111 % of control. For the same molecule, the T/C (dose: 25.0 mg/kg/injection, schedule: Q01DX Z (ip), vehicle: carboxymethylcellulose (CMC)) was 93 % of control, the T/C (dose: 34.98 mg/kg/injection, schedule: Q01DX Z (ip), vehicle: carboxymethylcellulose (CMC)) was 92 % of control and the T/C (dose: 44.0 mg/kg/injection, schedule: Q02DX010 (ip), vehicle: other) was 100 % of control. For the same molecule, the T/C (dose: 50.0 mg/kg/injection, schedule: Q01DX009 (ip), vehicle: Klucel (hydroxypropylcellulose) (HPC)) was 110 % of control, the T/C (dose: 66.0 mg/kg/injection, schedule: Q02DX010 (ip), vehicle: other) was 105 % of control and the T/C (dose: 69.95 mg/kg/injection, schedule: Q01DX Z (ip), vehicle: carboxymethylcellulose (CMC)) was 95 % of control. For the same molecule, the T/C [1] was 97 % of control, the T/C (dose: 100.0 mg/kg/injection, schedule: Q01DX Z (ip), vehicle: carboxymethylcellulose (CMC)) was 91 % of control and the T/C (dose: 100.0 mg/kg/injection, schedule: Q02DX010 (ip), vehicle: other) was 116 % of control. The T/C (dose: 139.9 mg/kg/injection, schedule: Q01DX Z (ip), vehicle: carboxymethylcellulose (CMC)) was 106 % of control, the T/C (dose: 150.0 mg/kg/injection, schedule: Q02DX010 (ip), vehicle: other) was 117 % of control and the T/C [2] was 90 % of control. For the same molecule, the T/C (dose: 225.0 mg/kg/injection, schedule: Q02DX010 (ip), vehicle: other) was 60 % of control and the T/C [3] was 97 % of control.
With `O=C(/C=C\c1ccc(O)c(O)c1)OC1C(O)CC(OC(=O)/C=C/c2ccc(O)c(O)c2)(C(=O)O)CC1O` (configuration not stated) the T/C (dose: 100.0 mg/kg/injection, schedule: Q01DX009 (ip), vehicle: saline) was 105 % of control, the T/C (dose: 200.0 mg/kg/injection, schedule: Q01DX009 (ip), vehicle: saline) was 91 % of control and the T/C (dose: 400.0 mg/kg/injection, schedule: Q01DX009 (ip), vehicle: saline) was 94 % of control.
In the case of `COc1ccc([N+](=O)[O-])cc1C(F)(F)F`, the T/C [8] is reported as 96 % of control, the T/C [10] is reported as 97 % of control and the T/C [12] is reported as 93 % of control.
`C/C(=N/N(C)C)c1cccs1` was tested, and the T/C (dose: 4.0 mg/kg/injection, schedule: Q04DX003 (sc), vehicle: olive oil, sesame oil, peanut oil) was 89 % of control, the T/C (dose: 6.0 mg/kg/injection, schedule: Q04DX003 (sc), vehicle: olive oil, sesame oil, peanut oil) was 103 % of control and the T/C (dose: 9.0 mg/kg/injection, schedule: Q04DX003 (sc), vehicle: olive oil, sesame oil, peanut oil) was 99 % of control. The T/C (dose: 12.5 mg/kg/injection, schedule: Q04DX003 (sc), vehicle: olive oil, sesame oil, peanut oil) was 102 % of control, the T/C (dose: 14.0 mg/kg/injection, schedule: Q04DX003 (sc), vehicle: olive oil, sesame oil, peanut oil) was 97 % of control and the T/C (dose: 22.0 mg/kg/injection, schedule: Q04DX003 (sc), vehicle: olive oil, sesame oil, peanut oil) was 120 % of control. For the same molecule, the T/C (dose: 33.0 mg/kg/injection, schedule: Q04DX003 (sc), vehicle: olive oil, sesame oil, peanut oil) was 124 % of control and the T/C (dose: 50.0 mg/kg/injection, schedule: Q04DX003 (sc), vehicle: olive oil, sesame oil, peanut oil) was 98 % of control.
In the case of `Cc1ccc(C(C)C)c(OC(=O)Nc2ccc(S(=O)(=O)NC3CCCCC3)cc2)c1`, the T/C (dose: 100.0 mg/kg/injection, schedule: Q01DX001 (ip), vehicle: saline) is reported as 94 % of control, the T/C (dose: 200.0 mg/kg/injection, schedule: Q01DX001 (ip), vehicle: saline) is reported as 96 % of control and the T/C (dose: 400.0 mg/kg/injection, schedule: Q01DX001 (ip), vehicle: saline) is reported as 94 % of control.
`Cc1c2ccncc2c(C)c2c1[nH]c1ccc(O)cc12` was tested, and the T/C (dose: 3.1 mg/kg/injection, schedule: Q01DX009 (ip), vehicle: saline with Tween-80) was 158 % of control, the T/C (dose: 6.25 mg/kg/injection, schedule: Q01DX009 (ip), vehicle: saline with Tween-80) was 100 % of control and the T/C (dose: 6.3 mg/kg/injection, schedule: Q04DX003 (ip), vehicle: saline with Tween-80) was 122 % of control. The T/C (dose: 12.5 mg/kg/injection, schedule: Q01DX001 (oral), vehicle: saline with Tween-80) was 104 % of control, the T/C (dose: 12.5 mg/kg/injection, schedule: Q01DX009 (ip), vehicle: saline with Tween-80) was 98 % of control and the T/C (dose: 25.0 mg/kg/injection, schedule: Q01DX001 (oral), vehicle: saline with Tween-80) was 106 % of control. For the same molecule, the T/C (dose: 50.0 mg/kg/injection, schedule: Q01DX001 (oral), vehicle: saline with Tween-80) was 104 % of control, the T/C (dose: 50.0 mg/kg/injection, schedule: Q04DX003 (ip), vehicle: saline with Tween-80) was 98 % of control and the T/C (dose: 100.0 mg/kg/injection, schedule: Q01DX001 (oral), vehicle: saline with Tween-80) was 114 % of control. For the same molecule, the T/C (dose: 200.0 mg/kg/injection, schedule: Q01DX001 (oral), vehicle: saline with Tween-80) was 112 % of control.
With `Cc1cncc(=O)[nH]1` the T/C [7] was 98 % of control, the T/C [8] was 96 % of control and the T/C [4] was 104 % of control. For the same molecule, the T/C [9] was 98 % of control, the T/C [10] was 100 % of control and the T/C [5] was 111 % of control. For the same molecule, the T/C [11] was 102 % of control, the T/C [12] was 91 % of control and the T/C [6] was 98 % of control.
